Assay results as given in patent US11827628B2, “Compositions and methods for inhibition of the JAK pathway” (Rigel Pharmaceuticals, Inc., priority 2005, dated 2023).
Like-named read-outs stand apart in the source and are kept apart here.

Assays:
[1] = system: Primary human T-cells; assay: Primary Human T-Cell Proliferation Assay Stimulated with IL-2 (CellTiter-Glo); format: cell-based; settings: read-out: IC50, Example 42
Procedure, shortened: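 IC50 derived from CellTiter-Glo ATP signal after 72 hours of IL-2-driven proliferation at 37° C. Cells: primary human T-cells from blood, stimulated beforehand 3-4 days on anti-CD3/anti-CD28 with IL-2, then rested from IL-2 before compound exposure in duplicate; IL-2-free wells served as unstimulated control.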

[2] = system: up-regulation of ICAM-1 (CD54) by IFNγ in A549 lung epithelial cells; assay: A549 Epithelial Line Stimulated with IFNγ (ICAM-1 surface expression, FACS); format: cell-based, human; settings: ICAM-1 expression by FACS, read-out: IC50, Example 43
Procedure, shortened: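 ICAM-1 (CD54) flow cytometry on live-gated A549 cells, geometric mean versus dose giving EC50. Cells received IFNγ at 75 ng/mL for 24 h after a 1 h compound pre-treatment spanning 30 μM to 14 nM in medium with 5% FBS and 0.3% DMSO.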

[3] = primary human T-cell proliferation stimulated with IL-2
[4] = A549 epithelial line stimulated with IFNγ
[5] = primary human T-cells stimulated with IL-2, proliferation
[6] = A549 cells stimulated with IFNγ

IC50 [2, 4] [nM] | IC50 [2, 6] [nM] | Compound | IC50 [1, 3] [nM] | IC50 [1, 5] [nM]
6550 | – | CN1CCN(c2ccc(Nc3ncc(F)c(Nc4ccc(OCC#N)c(F)c4)n3)cc2S(N)(=O)=O)CC1 [Compound I-10, N2-[3-Aminosulfonyl-4-(4-methylpiperazine-1-yl)phenyl]-5-fluoro-N4-(4-cyanomethyleneoxy-3-fluorophenyl)-2,4-pyrimidinediamine] | 95.7 | –
36400 | – | CC(Oc1ccc(Nc2nc(Nc3cccc(S(N)(=O)=O)c3)ncc2F)cc1)C(N)=O (racemic) [Compound I-117, Racemic N4-[4-(1-Aminocarbonyl)ethoxy]phenyl-N2-(3-aminosulfonyl)phenyl-5-fluoro-2,4-pyrimidinediamine] | 301 | –
– | 12500 | CNC(=O)N1CCCc2cc(Nc3nc(Nc4ccc(C)c(S(N)(=O)=O)c4)ncc3F)ccc21 [VII-19, N2-(3-Aminosulfonyl-4-methylphenyl)-5-fluoro-N4-[1-(methylaminocarbonyl)-1,2,3,4-tetrahydroquin-6-yl]-2,4-pyrimidinediamine] | – | 514
15100 | – | NS(=O)(=O)c1cccc(Nc2ncc(F)c(Nc3ccc(OCc4cccnc4)cc3)n2)c1 [Compound I-188, N2-(3-Aminosulfonylphenyl)-5-fluoro-N4-[4-(3-pyridinyl)methyleneoxyphenyl]-2,4-pyrimidinediamine] | 64.2 | –
– | 13100 | CCS(=O)(=O)N1CCc2cc(Nc3nc(Nc4ccc(C)c(S(N)(=O)=O)c4)ncc3F)ccc2C1 [VII-15, N2-(3-aminosulfonyl-4-methyl)phenyl-N4-[(N-ethylsulfonyl)-1,2,3,4-tetrahydroisoquinolin-6-yl]-5-fluoro-2,4-pyrimidinediamine] | – | 121
– | 18700 | C#CCOc1ccc(Nc2nc(Nc3ccc(C)c(S(=O)(=O)NC4CCN(C)CC4)c3)ncc2F)cc1 [VI-69, 5-Fluoro-N2-{[4-methyl-3-((1-methylpiperidin-4-yl)aminosulfonyl)]phenyl} N4-[4-(prop-2-ynyloxy)phenyl]-2,4-pyrimidinediamine] | – | 1340
2970 | – | Cc1ccc(Nc2nc(Nc3ccc(S(N)(=O)=O)cc3)ncc2F)cc1OCC(=O)N1CCOCC1 [Compound I-209, N2-(4-Aminosulfonylphenyl)-5-fluoro-N4-[4-methyl-3-(2-morpholinocarbonylmethyleneoxy)phenyl]-2,4-pyrimidinediamine] | 4470 | –
– | 4420 | CN1C(=O)CSc2ccc(Nc3nc(Nc4cccc(S(=O)(=O)N5CCCCC5)c4)ncc3F)cc21 [VII-50, 5-Fluoro-N4-(4-methyl-3-oxo-benz[1,4]thiazin-6-yl)-N2-(3-pipendinosulfonylphenyl)-2,4-pyrimidinediamine] | – | 856
– | 55200 | N2-[3-Aminosulfonyl-4-(4-methylpiperazine-1-yl)phenyl]-N4-(3-cyanomethylene-1H-indol-7-yl)-5-fluoro-2,4-pyrimidinediamine [IX-18] | – | 2400
612 | – | Cc1ccc(Nc2ncc(Br)c(Nc3ccc(OCC#N)cc3)n2)cc1S(N)(=O)=O [Compound I-14, N2-(3-Aminosulfonyl-4-methylphenyl)-5-bromo-N4-(4-cyanomethyleneoxyphenyl)-2,4-pyrimidinediamine] | 11.5 | –
– | 22000 | N2-[3-Aminosulfonyl-4-(4-methylpiperazine-1-yl)phenyl]-N4-(3-cyanomethylene-1H-indol-6-yl)-5-fluoro-2,4-pyrimidinediamine [IX-17] | – | 815
6740 | – | Cc1ccc(Nc2ncc(F)c(Nc3ccc(OCc4cccnc4)cc3)n2)cc1S(N)(=O)=O [Compound I-189, N2-(3-Aminosulfonyl-4-methylphenyl)-5-fluoro-N4-[4-(3-pyridinyl)methyleneoxyphenyl]-2,4-pyrimidinediamine] | 143 | –
– | 16600 | NC1CCOc2ccc(Nc3nc(Nc4cccc(S(N)(=O)=O)c4)ncc3F)cc21 (stereo not shown) [VII-28, N2-(3-Aminosulfonylphenyl)-N4-(chroman-4-amine-6-yl)-5-fluoro-2,4-pyrimidinediamine] | – | 709
– | 36800 | N#CCn1ccc2cc(Nc3nc(Nc4ccc(S(N)(=O)=O)cc4)ncc3F)ccc21 [IX-6, N2-(4-Aminosulfonylphenyl)-N4-(1-cyanomethyleneindol-5-yl)-5-fluoro-2,4-pyrimidinediamine] | – | 535
– | 6100 | N#CCn1ccc2cc(Nc3nc(Nc4cccc(S(N)(=O)=O)c4)ncc3F)ccc21 [IX-5, N2-(3-Aminosulfonylphenyl)-N4-(1-cyanomethyleneindol-5-yl)-5-fluoro-2,4-pyrimidinediamine] | – | 73.8
– | 2600 | CS(=O)(=O)N1CCc2cc(Nc3nc(Nc4cccc(S(N)(=O)=O)c4)ncc3F)ccc21 [VII-60, N2-(3-Aminosulfonylphenyl)-5-fluoro-N4-[4-(1-methylsulfonyl)indolin-5-yl]-2,4-pyrimidinediamine] | – | 152

IC50 [2, 4] [nM] | IC50 [2, 6] [nM] | Compound | IC50 [1, 3] [nM] | IC50 [1, 5] [nM]
5030 | – | Cc1ccc(Nc2ncc(F)c(Nc3ccc(OCc4ccncc4)cc3)n2)cc1S(N)(=O)=O [Compound I-194, N2-(3-Aminosulfonyl-4-methylphenyl)-5-fluoro-N4-[4-(4-pyridinyl)methyleneoxyphenyl]-2,4-pyrimidinediamine] | 99.3 | –
– | 9930 | CCS(=O)(=O)N1CCc2cc(Nc3nc(Nc4cccc(S(N)(=O)=O)c4)ncc3F)ccc2C1 [VII-14, N2-(3-aminosulfonyl)phenyl-N4-[(N-ethylsulfonyl)-1,2,3,4-tetrahydroisoquinolin-6-yl]-5-fluoro-2,4-pyrimidinediamine] | – | 177
40900 | – | Cc1ccc(Nc2ncc(F)c(Nc3cc(C)c(OCC(N)=O)c(C)c3)n2)cc1S(N)(=O)=O [Compound I-96, N4-(4-Aminocarbonylmethoxy-3,5-dimethyl)phenyl-N2-(3-aminosulfonyl-4-methyl)phenyl-5-fluoro-2,4-pyrimidinediamine] | 772 | –
– | 4030 | Cc1ccc(Nc2ncc(F)c(Nc3ccc4c(c3)NC(=O)CS4)n2)cc1S(N)(=O)=O [VII-45, N2-(3-Aminosulphonyl-4-methyl-phenyl)-5-fluoro-N4-(3-oxo-4H-benzo[1,4]thiazin-6-yl)-2,4-pyrimidinediamine] | – | 282
– | – | Cc1ccc(Nc2ncc(F)c(Nc3ccc4c(c3)CC(C(=O)N(C)C)O4)n2)cc1S(N)(=O)=O (racemic) [VII-26, Racemic N2-(3-Aminosulfonyl-4-methylphenyl)-N4-[2-(N,N-dimethylaminocarbonyl)-2,3-dihydrobenzofuran-5-yl]-5-fluoro-2,4-pyrimidinediamine] | – | 1200
– | – | COc1ccc(Nc2nc(Nc3cc(C)c4c(c3)S(=O)(=O)NC=N4)ncc2F)cc1Cl [VIII-3, N4-(3-Chloro-4-methoxyphenyl)-5-fluoro-N2-(5-methyl-2H-1,1-dioxo-1,2,4-benzothiadiazin-7-yl)-2,4-pyrimidinediamine] | – | 1840
– | – | Cc1ccc(Nc2ncc(F)c(Nc3ccc(OC(C)C(N)=O)cc3)n2)cc1S(N)(=O)=O (stereo not shown) [Compound I-118, N4-[4-(1-Aminocarbonyl)ethoxy]phenyl-N2-(3-aminosulfonyl-4-methyl)phenyl-5-fluoro-2,4-pyrimidinediamine] | 557 | –
– | – | N2-(3-Aminosulphonylphenyl)-5-fluoro-N4-[4-(3-pyridinylmethyl)benzo[1,4]oxazin-7-yl]-2,4-pyrimidinediamine [VII-56] | – | 1280
– | – | CNS(=O)(=O)c1cc(Nc2ncc(F)c(Nc3cccc(OCc4cccnc4)c3)n2)ccc1C [Compound I-184, 5-Fluoro-N2-[3-(N-methylaminosulfony)-4-methylphenyl]-5-fluoro-N4-[3-(3-pyridinyl)methyleneoxyphenyl]-2,4-pyrimidinediamine] | 2570 | –
– | – | CNC(=O)N1CCc2ccc(Nc3nc(Nc4ccc(C)c(S(N)(=O)=O)c4)ncc3F)cc2C1 [VII-17, N2-(3-Aminosulfonyl-4-methylphenyl)-5-fluoro-N4-[2-(methylaminocarbonyl)-1,2,3,4-tetrahydroisoquin-7-yl]-2,4-pyrimidinediamine] | – | 2100
– | – | N#CCn1ccc2cc(Nc3nc(Nc4ccc(Cl)c(S(N)(=O)=O)c4)ncc3F)ccc21 [IX-7, N2-(3-Aminosulfonyl-4-chlorophenyl)-N4-(1-cyanomethyleneindol-5-yl)-5-fluoro-2,4-pyrimidinediamine] | – | 751
– | – | CN1C(=O)C(C)(C)Oc2cc(Nc3nc(Nc4cccc(S(N)(=O)=O)c4)ncc3F)cnc21 [VII-42, N2-(3-Aminosulfonylphenyl)-N4-[2,2,4-trimethyl-3-oxo-5-pyrid[1,4]oxazin-7-yl]-5-fluoro-2,4-pyrimidinediamine] | – | 7280
– | – | Cc1cc(COc2cccc(Nc3nc(Nc4ccc(C)c(S(N)(=O)=O)c4)ncc3F)c2)no1 [Compound I-214] | 1330 | –
– | – | CS(=O)(=O)N1CCc2cc(Nc3nc(Nc4ccc(S(N)(=O)=O)cc4)ncc3F)ccc21 [VII-63] | – | 301
– | – | N4-(3-Chloro-4-cyanomethyleneoxyphenyl)-5-fluoro-N2-(5-methyl-2H-1,1-dioxide-1,2,4-benzothiadiazin-7-yl)-2,4-pyrimidinediamine [VIII-2] | – | 409
– | – | Cc1ccc(Nc2ncc(F)c(Nc3ccc4c(c3)CN(C(=O)N(C)C)CC4)n2)cc1S(N)(=O)=O [VII-18, N2-(3-Aminosulfonyl-4-methylphenyl)-5-fluoro-N4-[2-(dimethylaminocarbonyl)-1,2,3,4-tetrahydroisoquin-7-yl]-2,4-pyrimidinediamine] | – | 839
